Laboratory results reported in PubChem BioAssay AID330 (DTP/NCI, 2004).
“And” between values parts separate entries of the source, which are not always exact repeats. Equal entries are not always repeated. Toxic doses and inconclusive results are not listed. The calls were made as follows: active = survival T/C of 150% or more; inactive = T/C below 125% in these data.

Test system: P388 leukemia ip, CD2F1 mice, survival T/C
Test: NCI In Vivo Anticancer Drug Screen. Data for tumor model P388 Leukemia (intraperitoneal) in CD2F1 (CDF1) mice
Settings: endpoint: median survival time, higher = longer survival
How it was run: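 Mice carrying the transplanted tumor received test compound or vehicle. Survival was recorded in each group, and the value is the treated-group measurement divided by that of the vehicle-treated control group.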

[1] = dose: 3.13 mg/kg/injection, schedule: Q04DX003 (ip), vehicle: distilled water + Tween-80
[2] = dose: 6.25 mg/kg/injection, schedule: Q04DX003 (ip), vehicle: distilled water + Tween-80
[3] = dose: 12.5 mg/kg/injection, schedule: Q04DX003 (ip), vehicle: distilled water + Tween-80
[4] = dose: 25.0 mg/kg/injection, schedule: Q04DX003 (ip), vehicle: distilled water + Tween-80
[5] = dose: 50.0 mg/kg/injection, schedule: Q01DX009 (ip), vehicle: saline with Tween-80
[6] = dose: 100.0 mg/kg/injection, schedule: Q01DX009 (ip), vehicle: saline with Tween-80
[7] = dose: 200.0 mg/kg/injection, schedule: Q01DX009 (ip), vehicle: saline with Tween-80
[8] = dose: 60.0 mg/kg/injection, schedule: Q01DX005 (ip), vehicle: Klucel (hydroxypropylcellulose) (HPC)
[9] = dose: 120.0 mg/kg/injection, schedule: Q01DX005 (ip), vehicle: Klucel (hydroxypropylcellulose) (HPC)
[10] = dose: 240.0 mg/kg/injection, schedule: Q01DX005 (ip), vehicle: Klucel (hydroxypropylcellulose) (HPC)
[11] = dose: 50.0 mg/kg/injection, schedule: Q01DX005 (ip), vehicle: saline with Tween-80
[12] = dose: 100.0 mg/kg/injection, schedule: Q01DX005 (ip), vehicle: saline with Tween-80
[13] = dose: 200.0 mg/kg/injection, schedule: Q01DX005 (ip), vehicle: saline with Tween-80
[14] = dose: 50.0 mg/kg/injection, schedule: Q01DX009 (ip), vehicle: saline
[15] = dose: 100.0 mg/kg/injection, schedule: Q01DX009 (ip), vehicle: saline
[16] = dose: 200.0 mg/kg/injection, schedule: Q01DX009 (ip), vehicle: saline
[17] = dose: 50.0 mg/kg/injection, schedule: Q01DX009 (ip), vehicle: Klucel (hydroxypropylcellulose) (HPC)
[18] = dose: 100.0 mg/kg/injection, schedule: Q01DX009 (ip), vehicle: Klucel (hydroxypropylcellulose) (HPC)
[19] = dose: 200.0 mg/kg/injection, schedule: Q01DX009 (ip), vehicle: Klucel (hydroxypropylcellulose) (HPC)
[20] = dose: 12.5 mg/kg/injection, schedule: Q01DX005 (ip), vehicle: Klucel (hydroxypropylcellulose) (HPC)
[21] = dose: 25.0 mg/kg/injection, schedule: Q01DX005 (ip), vehicle: Klucel (hydroxypropylcellulose) (HPC)
[22] = dose: 50.0 mg/kg/injection, schedule: Q01DX005 (ip), vehicle: Klucel (hydroxypropylcellulose) (HPC)
[23] = dose: 100.0 mg/kg/injection, schedule: Q01DX001 (ip), vehicle: Klucel (hydroxypropylcellulose) (HPC)
[24] = dose: 200.0 mg/kg/injection, schedule: Q01DX001 (ip), vehicle: Klucel (hydroxypropylcellulose) (HPC)
[25] = dose: 400.0 mg/kg/injection, schedule: Q01DX001 (ip), vehicle: Klucel (hydroxypropylcellulose) (HPC)

Measured: T/C

COc1cccc2c1C(=O)c1c(O)c3c(c(O)c1C2=O)CC(O)(C(C)=O)CC3OC1CC(SC)C(OC(C)=O)C(C)O1 (configuration not stated)
inactive: [1] 100 % of control | dose: 3.13 mg/kg/injection, schedule: Q04DX003 (ip), vehicle: water 101 % of control | [2] 105 % of control | dose: 6.25 mg/kg/injection, schedule: Q04DX003 (ip), vehicle: water 96 % of control | [3] 97 % of control | dose: 12.5 mg/kg/injection, schedule: Q04DX003 (ip), vehicle: water 97 % of control | [4] 100 % of control | dose: 25.0 mg/kg/injection, schedule: Q04DX003 (ip), vehicle: water 100 % of control | dose: 50.0 mg/kg/injection, schedule: Q04DX003 (ip), vehicle: distilled water + Tween-80 110 % of control | dose: 50.0 mg/kg/injection, schedule: Q04DX003 (ip), vehicle: water 96 % of control

CCOC1OCN(Cc2ccccc2)CC1(C)C (configuration not stated)
inactive: [5] 114 % of control | [6] 115 % of control | [7] 117 % of control

CC(C)CC1COC(=O)C(CC(C)C)NC(=O)COCC(=O)NC(CC(C)C)C(=O)OCC(CC(C)C)NC(=O)COCC(=O)N1 (configuration not stated)
inactive: [8] 99 % of control | [9] 100 % of control | [10] 101 % of control

CC(C)(C#N)C#N
inactive: dose: 25.0 mg/kg/injection, schedule: Q04DX003 (ip), vehicle: saline with Tween-80 100 % of control | dose: 50.0 mg/kg/injection, schedule: Q04DX003 (ip), vehicle: saline with Tween-80 100 % of control

C1CN2CCN3CCCN4CCN(C1)C2C34 (configuration not stated)
inactive: dose: 50.0 mg/kg/injection, schedule: Q01DX005 (ip), vehicle: saline 93 % of control | dose: 100.0 mg/kg/injection, schedule: Q01DX005 (ip), vehicle: saline 108 % of control | dose: 200.0 mg/kg/injection, schedule: Q01DX005 (ip), vehicle: saline 111 % of control

COc1ccc2ncc(C)c(CO)c2c1
inactive: [11] 116 % of control | [12] 102 % of control | [13] 98 % of control

O=C(NC1CCCCC1)Oc1ccc[nH]c1=O
inactive: dose: 25.0 mg/kg/injection, schedule: Q01DX009 (ip), vehicle: saline 92 % of control and 93 % of control | dose: 25.0 mg/kg/injection, schedule: Q01DX009 (sc), vehicle: saline with Tween-80 101 % of control and 109 % of control | [14] 102 % of control and 104 % of control | dose: 50.0 mg/kg/injection, schedule: Q01DX009 (sc), vehicle: saline with Tween-80 106 % of control and 107 % of control | [15] 105 % of control and 98 % of control | dose: 100.0 mg/kg/injection, schedule: Q01DX009 (sc), vehicle: saline with Tween-80 102 % of control and 117 % of control | [16] 102 % of control and 105 % of control | dose: 200.0 mg/kg/injection, schedule: Q01DX009 (sc), vehicle: saline with Tween-80 108 % of control and 111 % of control | dose: 400.0 mg/kg/injection, schedule: Q01DX009 (ip), vehicle: saline 116 % of control and 118 % of control | dose: 400.0 mg/kg/injection, schedule: Q01DX009 (sc), vehicle: saline with Tween-80 104 % of control and 107 % of control | dose: 600.0 mg/kg/injection, schedule: Q01DX009 (sc), vehicle: saline with Tween-80 102 % of control and 113 % of control

O=P(C(=S)Nc1ccccc1Cl)(c1ccccc1)c1ccccc1
inactive: [17] 100 % of control | [18] 91 % of control | [19] 90 % of control

COc1ccc2c(c1)CCc1c(N)ncnc1-2
inactive: dose: 100.0 mg/kg/injection, schedule: Q04DX002 (ip), vehicle: saline with Tween-80 104 % of control | dose: 200.0 mg/kg/injection, schedule: Q04DX002 (ip), vehicle: saline with Tween-80 106 % of control | dose: 400.0 mg/kg/injection, schedule: Q04DX002 (ip), vehicle: saline with Tween-80 107 % of control

CCN(CC)CCC#N
inactive: [14] 94 % of control | [15] 87 % of control | [16] 88 % of control

CNC(=O)NC(c1cc(OC)c(O)c(OC)c1)c1cc2c(cc1O)OCO2 (configuration not stated)
inactive: [8] 95 % of control | [9] 94 % of control | [10] 87 % of control

COc1cc2c(C)c[n+]3cc4cc5c(OC)c(OC)ccc5cc4cc3c2cc1OC (tested in a mixture with another compound)
inactive: [1] 117 % of control | [2] 117 % of control | [3] 111 % of control | [4] 99 % of control

COC(=O)/C1=C/CCC2=CC(CCC1)OC2=O (configuration not stated)
inactive: dose: 35.75 mg/kg/injection, schedule: Q01DX005 (ip), vehicle: Klucel (hydroxypropylcellulose) (HPC) 103 % of control | dose: 71.5 mg/kg/injection, schedule: Q01DX005 (ip), vehicle: Klucel (hydroxypropylcellulose) (HPC) 99 % of control | dose: 143.0 mg/kg/injection, schedule: Q01DX005 (ip), vehicle: Klucel (hydroxypropylcellulose) (HPC) 97 % of control

CSc1nc(Cl)c(Cl)c(C(F)(F)F)n1
inactive: [11] 103 % of control

CC1(C)CCCC2(C)OC(=O)C=C12 (configuration not stated)
inactive: dose: 3.12 mg/kg/injection, schedule: Q01DX005 (ip), vehicle: distilled water + Tween-80 105 % of control | dose: 6.25 mg/kg/injection, schedule: Q01DX005 (ip), vehicle: distilled water + Tween-80 104 % of control | dose: 12.5 mg/kg/injection, schedule: Q01DX005 (ip), vehicle: distilled water + Tween-80 94 % of control

CN(C(=O)C(Cl)Cl)c1ccc(-c2csc(-c3ccccc3)n2)cc1
inactive: dose: 100.0 mg/kg/injection, schedule: Q04DX003 (ip), vehicle: Klucel (hydroxypropylcellulose) (HPC) 100 % of control | dose: 200.0 mg/kg/injection, schedule: Q04DX003 (ip), vehicle: Klucel (hydroxypropylcellulose) (HPC) 97 % of control | dose: 400.0 mg/kg/injection, schedule: Q04DX003 (ip), vehicle: Klucel (hydroxypropylcellulose) (HPC) 91 % of control

Cn1cnc2cc(N3CCCCC3)c([N+](=O)[O-])cc2c1=O
inactive: [17] 101 % of control | [18] 107 % of control | [19] 99 % of control

O=C(N/C=C/c1ccco1)NC1CCCCCCCCCCC1
inactive: [20] 95 % of control | [21] 92 % of control | [22] 89 % of control

S=P(OC1CC2CCC1C2)(c1ccccc1)c1ccccc1 (configuration not stated)
inactive: [5] 100 % of control | [6] 103 % of control | [7] 106 % of control

CC(C)(C)c1noc2c1C(=O)c1ccccc1-2
inactive: [8] 99 % of control | [9] 91 % of control | [10] 96 % of control

CCC1C(=O)NC(=O)C1(C)c1ccccc1 (configuration not stated)
inactive: dose: 25.0 mg/kg/injection, schedule: Q01DX009 (ip), vehicle: saline with Tween-80 100 % of control and 102 % of control | [5] 100 % of control and 105 % of control | [6] 102 % of control and 103 % of control | [7] 102 % of control and 111 % of control

CCOC(=O)CC1CC(C)(C(=O)OCC)C(=O)CC1=O (configuration not stated)
inactive: [11] 102 % of control | [12] 104 % of control | [13] 95 % of control

CCCCOP(O)(=S)OCCCC.[Sm]
inactive: dose: 100.0 mg/kg/injection, schedule: Q01DX001 (ip), vehicle: saline with Tween-80 92 % of control | dose: 200.0 mg/kg/injection, schedule: Q01DX001 (ip), vehicle: saline with Tween-80 116 % of control

CNC(=O)CCC(NS(=O)(=O)c1ccc(NC(C)=O)cc1)C(=O)O (configuration not stated)
inactive: [23] 105 % of control | [24] 98 % of control | [25] 100 % of control

C1=CCC(CC[Si]23OCCN(CCO2)CCO3)CC1 (configuration not stated)
inactive: [20] 103 % of control | [21] 96 % of control | [22] 101 % of control and 96 % of control

Cc1ccc(-c2nc3sccn3c2C=O)cc1
inactive: [23] 95 % of control | [24] 96 % of control | [25] 96 % of control

COc1cc2c3c4c1OCc1c5c(cc(c1-4)CC3[N+](C)(C)CC2)OCO5 (configuration not stated)
inactive: dose: 25.0 mg/kg/injection, schedule: Q01DX001 (ip), vehicle: saline 100 % of control
